Measurements published in ChEMBL document CHEMBL1201862, “PubChem BioAssay data set” (2004).
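The compound was tested at five concentrations on cells cultured in 96-well plates, with a 48-hour exposure period. GI50 marks 50% less growth.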 Calls of active or inactive are those of the source. Cut-off read from the data, not from the text of the source: active = GI50 up to about 1.1 µM and inactive = higher.

Assays:
Assay in all cases: NCI-60 cell line screen, 48 h
MDA-MB-231 = test system: MDA-MB-231
SF-539 = test system: SF-539
IGROV-1 = test system: IGROV-1
MCF7 = test system: MCF7
Malme-3M = test system: Malme-3M
786-0 = test system: 786-0
SK-MEL-28 = test system: SK-MEL-28
HT-29 = test system: HT-29
SW-620 = test system: SW-620
OVCAR-5 = test system: OVCAR-5
HCT-116 = test system: HCT-116
DU-145 = test system: DU-145
M14 = test system: M14
RXF 393 = test system: RXF 393
ACHN = test system: ACHN
PC-3 = test system: PC-3
CCRF-CEM = test system: CCRF-CEM
SR = test system: SR
KM12 = test system: KM12
HCC 2998 = test system: HCC 2998

Compound	GI50 (MDA-MB-231)	GI50 (SF-539)	GI50 (IGROV-1)	GI50 (MCF7)	GI50 (Malme-3M)	GI50 (786-0)	GI50 (SK-MEL-28)	GI50 (HT-29)	GI50 (SW-620)	GI50 (OVCAR-5)	GI50 (HCT-116)	GI50 (DU-145)	GI50 (M14)	GI50 (RXF 393)	GI50 (ACHN)	GI50 (PC-3)	GI50 (CCRF-CEM)	GI50 (SR)	GI50 (KM12)	GI50 (HCC 2998)
Oc1ccc(O)c(CNc2ccc(C(O)C(F)(F)F)cc2)c1 (configuration not stated)	15.6 µM (inactive)	4.85 µM (inactive)	12.9 µM (inactive)	21.8 µM (inactive)	15.6 µM (inactive)	13 µM (inactive)	31.6 µM (inactive)	32.4 µM (inactive)	32.2 µM (inactive)	20.5 µM (inactive)	16.7 µM (inactive)	14.5 µM (inactive)	14.8 µM (inactive)	12.5 µM (inactive)	13.7 µM (inactive)	16.3 µM (inactive)	3.21 µM (inactive)	6.3 µM (inactive)		
Cc1ccc(C)c(NC(=O)C(Cc2c[nH]c3ccccc23)NC(=O)OCc2ccccc2)c1 (configuration not stated)	16.1 µM (inactive)	8.53 µM (inactive)	18.2 µM (inactive)	23.1 µM (inactive)	25.4 µM (inactive)	15.5 µM (inactive)	25.8 µM (inactive)	12.4 µM (inactive)	15.1 µM (inactive)	25.6 µM (inactive)	23 µM (inactive)	13.5 µM (inactive)	13.6 µM (inactive)	6.34 µM (inactive)	22.9 µM (inactive)	11.5 µM (inactive)	1.42 µM (inactive)	14.3 µM (inactive)	16.5 µM (inactive)	
Nc1n[n+]([O-])c2cc([N+](=O)[O-])ccc2[n+]1[O-]	4.99 µM (inactive)	4.74 µM (inactive)	2.87 µM (inactive)	3.36 µM (inactive)		4.63 µM (inactive)	29 µM (inactive)	2.53 µM (inactive)	2.22 µM (inactive)	21.2 µM (inactive)	2.9 µM (inactive)	16.3 µM (inactive)	4.84 µM (inactive)		3.35 µM (inactive)	2.19 µM (inactive)	1.62 µM (inactive)	3.18 µM (inactive)		
C=C1C2C[C@@H]3O[C@H]4C[C@H]5O[C@@]6(C[C@@H]7O[C@]8(C[C@H](C)[C@@H]9O[C@@H]%10CC(C=O)O[C@@H]%10C[C@@H]9O8)C[C@H](C)[C@@H]7O6)C[C@H]5O[C@H]4[C@H](C)[C@H]3OC(=O)C[C@H]3CC[C@@H]4OC5[C@H]6O[C@]7(CC[C@H]8CC(=C)[C@H](CC[C@@H](C[C@H]1C)O2)O8)CC6O[C@@H]5[C@@H](O7)[C@H]4O3 (some centres not stated)	0.000229 µM (active)		< 0.0001 µM (active)	< 0.0001 µM (active)		< 0.0001 µM (active)			< 0.0001 µM (active)		< 0.0001 µM (active)	< 0.0001 µM (active)	< 0.0001 µM (active)	< 0.0001 µM (active)	< 0.0001 µM (active)	< 0.0001 µM (active)		< 0.0001 µM (active)	< 0.0001 µM (active)	< 0.0001 µM (active)
O=C1OC(c2ccco2)=N/C1=C\c1cccc([N+](=O)[O-])c1	> 100 µM (inactive)	> 100 µM (inactive)	> 100 µM (inactive)	> 100 µM (inactive)	> 100 µM (inactive)	> 100 µM (inactive)	> 100 µM (inactive)	> 100 µM (inactive)	> 100 µM (inactive)	> 100 µM (inactive)	> 100 µM (inactive)	> 100 µM (inactive)	> 100 µM (inactive)		> 100 µM (inactive)	> 100 µM (inactive)	> 100 µM (inactive)	> 100 µM (inactive)	> 100 µM (inactive)	> 100 µM (inactive)
CC[N+]1(C)CCC(O)(/C=C/c2ccc(OC)cc2)C(C(=O)/C=C/c2ccc(OC)cc2)C1 (configuration not stated)	23.9 µM (inactive)	5.35 µM (inactive)	21.8 µM (inactive)	4.29 µM (inactive)	14.4 µM (inactive)	3.13 µM (inactive)	15.3 µM (inactive)	13.2 µM (inactive)	2.7 µM (inactive)	21.2 µM (inactive)	12.7 µM (inactive)	14.2 µM (inactive)	10.4 µM (inactive)	15.1 µM (inactive)	8.36 µM (inactive)	20.1 µM (inactive)	0.548 µM (active)		4.13 µM (inactive)	20 µM (inactive)
OC1CCC(C2C3CCCCC3C3CCCCC3C2C2CCC(O)CC2)CC1 (configuration not stated)	3.27 µM (inactive)	10.6 µM (inactive)	3.7 µM (inactive)	3.4 µM (inactive)	15.8 µM (inactive)	4.16 µM (inactive)	3.83 µM (inactive)	2.05 µM (inactive)	3.99 µM (inactive)	7.59 µM (inactive)	4.52 µM (inactive)	5.37 µM (inactive)	5.19 µM (inactive)	2.9 µM (inactive)	2.98 µM (inactive)	5.31 µM (inactive)		4.16 µM (inactive)	3.33 µM (inactive)	
COC(=O)Cc1c(C(=O)CC(C)(C)n2cnc(CCN3C(=O)CCC3=O)c2)[nH]c2ccccc12	> 100 µM (inactive)	> 100 µM (inactive)	89.3 µM (inactive)	> 100 µM (inactive)	> 100 µM (inactive)	> 100 µM (inactive)	> 100 µM (inactive)	> 100 µM (inactive)	> 100 µM (inactive)	> 100 µM (inactive)	> 100 µM (inactive)	> 100 µM (inactive)	> 100 µM (inactive)	15.4 µM (inactive)	> 100 µM (inactive)	> 100 µM (inactive)	> 100 µM (inactive)	34.5 µM (inactive)	> 100 µM (inactive)	
